Drawing on patent US11229623B2 (GlaxoSmithKline Intellectual Property (No.2) Limited, priority 2016, dated 2022), this text covers IC50 for 28 compounds.

Broadly, the IC50 is the point on the concentration scale where inhibition reaches its midpoint.

The target of the first assay is T1, human TRPV4 (Homo sapiens, UniProt Q9HBA0).
T1 construct: expressed in transfected cells; host or cells: BHK/AC9 cells transduced with BacMam virus
T1 sequence (Q9HBA0 whole entry): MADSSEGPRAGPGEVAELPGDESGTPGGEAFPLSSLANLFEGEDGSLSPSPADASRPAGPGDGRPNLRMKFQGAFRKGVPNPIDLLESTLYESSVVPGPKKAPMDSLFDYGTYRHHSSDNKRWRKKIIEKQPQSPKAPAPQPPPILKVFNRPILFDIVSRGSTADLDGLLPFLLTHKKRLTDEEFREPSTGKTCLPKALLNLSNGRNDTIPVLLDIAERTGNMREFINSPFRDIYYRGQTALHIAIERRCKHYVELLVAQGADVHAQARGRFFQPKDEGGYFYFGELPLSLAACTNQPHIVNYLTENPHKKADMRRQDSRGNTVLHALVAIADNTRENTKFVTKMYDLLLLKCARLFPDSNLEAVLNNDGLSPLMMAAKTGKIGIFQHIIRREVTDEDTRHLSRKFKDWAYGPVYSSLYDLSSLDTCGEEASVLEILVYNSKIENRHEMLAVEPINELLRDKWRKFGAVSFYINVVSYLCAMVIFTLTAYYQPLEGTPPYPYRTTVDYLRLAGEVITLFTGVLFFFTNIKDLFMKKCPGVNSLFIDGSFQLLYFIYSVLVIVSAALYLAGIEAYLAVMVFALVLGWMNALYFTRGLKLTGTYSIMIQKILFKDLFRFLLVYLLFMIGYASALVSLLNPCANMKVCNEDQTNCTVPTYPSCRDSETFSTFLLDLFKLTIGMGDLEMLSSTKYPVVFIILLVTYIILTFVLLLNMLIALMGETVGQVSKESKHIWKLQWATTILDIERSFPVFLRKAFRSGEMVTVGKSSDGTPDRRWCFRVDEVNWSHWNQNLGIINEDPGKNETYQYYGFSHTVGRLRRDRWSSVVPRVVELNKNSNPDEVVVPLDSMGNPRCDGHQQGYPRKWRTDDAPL
Put plainly: FLIPR assay for hTRPV4 expressed in BHK cells: inhibition of Agonist Compound-induced calcium signal. In kind it is cell-based.
Conditions: not given
An outline of the steps: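 BHK/AC9 cells transduced with BacMam human TRPV4 (MOI 78), plated 15,000 per well and cultured 24 h at 37° C. Loaded with 2 μM Fluo-4 AM plus 500 μM Brilliant Black in HBSS for 1-1.5 h at room temperature in the dark; intracellular calcium signal read by FLIPR fluorescence.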
Consider `C[C@H](O)[C@]1(O)CN(S(=O)(=O)c2ccc(Cl)cn2)C[C@@H]1Oc1ccc(C#N)c(F)c1` [Example 191], for which the half-maximal inhibitory concentration (IC50) was 100 to 1000 nM.
Turning to `C[C@@H](O)[C@]1(O)CN(S(=O)(=O)c2ccc(Cl)cn2)C[C@@H]1Oc1ccc(C#N)c(F)c1` [Example 195], the IC50 is 0.1 to 10 nM.

The assay is the same for the next values; noted with them: hTRPV4 FLIPR assay; average in at least one set of experimental runs; read-out: average IC50.
With `C[C@H](O)[C@@]1(O)CN(S(=O)(=O)c2ccc(C(F)(F)F)cc2C#N)C[C@@H]1Oc1ccc(C#N)c(F)c1` [Example 194, 4-(((3S,4S)-1-((2-cyano-4-(trifluoromethyl)phenyl)sulfonyl)-4-hydroxy-4-((S)-1-hydroxyethyl)pyrrolidin-3-yl)oxy)-2-fluorobenzonitrile], the IC50 was determined as 40 nM.

Staying with this assay, now noted: hTRPV4 in BHK/AC9 cells, FLIPR calcium signal, agonist at EC80; reported as range class; read-out: IC50.
`N#Cc1ccc(S(=O)(=O)N2C[C@H](Oc3cc(F)c(C#N)cc3OCC(F)(F)F)[C@](O)(CO)C2)cc1` [Example 178, 4-(((3S,4R)-1-((4-cyanophenyl)sulfonyl)-4-hydroxy-4-(hydroxymethyl)pyrrolidin-3-yl)oxy)-2-fluoro-5-(2,2,2-trifluoroethoxy) benzonitrile]: the IC50 fell in the range of 0.1 to 10 nM.
Regarding `CC(C)COc1cc(C#N)c(F)cc1O[C@H]1CN(S(=O)(=O)c2ccccc2C#N)C[C@@]1(O)CO` [Example 179, 4-(((3S,4R)-1-((2-cyanophenyl)sulfonyl)-4-hydroxy-4-(hydroxymethyl)pyrrolidin-3-yl)oxy)-2-fluoro-5-isobutoxybenzonitrile], the IC50 was 0.1 to 10 nM.
Turning to `CC(C)COc1cc(C#N)c(F)cc1O[C@H]1CN(S(=O)(=O)c2ccc(C#N)cc2)C[C@@]1(O)CO` [Example 180, 4-(((3S,4R)-1-((4-cyanophenyl)sulfonyl)-4-hydroxy-4-(hydroxymethyl)pyrrolidin-3-yl)oxy)-2-fluoro-5-isobutoxybenzonitrile], the IC50 is 0.1 to 10 nM.
Regarding `CC(C)COc1cc(C#N)c(F)cc1O[C@H]1CN(S(=O)(=O)c2ccc(C#N)nc2)C[C@@]1(O)CO` [Example 181, 5-(((3R,4S)-4-(4-cyano-5-fluoro-2-isobutoxyphenoxy)-3-hydroxy-3-(hydroxymethyl)pyrrolidin-1-yl)sulfonyl) picolinonitrile], the IC50 was 0.1 to 10 nM.
In the case of `CC(C)COc1cc(C#N)c(F)cc1O[C@H]1CN(S(=O)(=O)c2ccc(C(F)(F)F)cc2)C[C@@]1(O)CO` [Example 182, 2-fluoro-4-(((3S,4R)-4-hydroxy-4-(hydroxymethyl)-1-((4-(trifluoromethyl)phenyl)sulfonyl)pyrrolidin-3-yl)oxy)-5-isobutoxybenzonitrile], the IC50 was in the range of 10 to 100 nM.
On to `CC(C)COc1cc(C#N)c(F)cc1O[C@H]1CN(S(=O)(=O)c2ccc(C(F)(F)F)nc2)C[C@@]1(O)CO` [Example 183, 2-fluoro-4-(((3S,4R)-4-hydroxy-4-(hydroxymethyl)-1-((6-(trifluoromethyl)pyridin-3-yl)sulfonyl)pyrrolidin-3-yl)oxy)-5-isobutoxybenzonitrile], for which the half-inhibitory concentration (IC50) lay in the range of 10 to 100 nM.
Turning to `N#Cc1ccc(O[C@H]2CN(S(=O)(=O)c3ccc(C#N)nc3)C[C@@]2(O)CO)c(OCC(F)(F)F)c1` [Example 184, 5-(((3R,4S)-4-(4-cyano-2-(2,2,2-trifluoroethoxy)phenoxy)-3-hydroxy-3-(hydroxymethyl)pyrrolidin-1-yl)sulfonyl) picolinonitrile], the IC50 fell in the range of 10 to 100 nM.
On to `N#Cc1ccc(O[C@H]2CN(S(=O)(=O)c3ccccc3C#N)C[C@@]2(O)CO)c(OCC(F)(F)F)c1` [Example 185, 4-(((3S,4R)-1-((2-cyanophenyl)sulfonyl)-4-hydroxy-4-(hydroxymethyl)pyrrolidin-3-yl)oxy)-3-(2,2,2-trifluoroethoxy) benzonitrile], for which the IC50 lay within 0.1 to 10 nM.
In the case of `N#Cc1ccc(O[C@H]2CN(S(=O)(=O)c3ccc(Cl)cn3)C[C@@]2(O)CO)c(OCC(F)(F)F)c1` [Example 186, 4-(((3S,4R)-1-((5-chloropyridin-2-yl)sulfonyl)-4-hydroxy-4-(hydroxymethyl)pyrrolidin-3-yl)oxy)-3-(2,2,2-trifluoroethoxy) benzonitrile], the half-inhibitory concentration (IC50) lay in the range of 10 to 100 nM.
Consider `N#Cc1cc(OCC(F)(F)F)c(O[C@H]2CN(S(=O)(=O)c3ccc(Cl)cn3)C[C@@]2(O)CO)cc1F` [Example 187, 4-(((3S,4R)-1-((5-chloropyridin-2-yl)sulfonyl)-4-hydroxy-4-(hydroxymethyl)pyrrolidin-3-yl)oxy)-2-fluoro-5-(2,2,2-trifluoroethoxy) benzonitrile], for which the IC50 was in the range of 0.1 to 10 nM.
Same read-out and setting: in the case of `Cc1ccc(S(=O)(=O)N2C[C@H](Oc3cc(F)c(C#N)cc3OCC(C)C)[C@](O)(CO)C2)nn1` [Example 188, 2-fluoro-4-(((3S,4R)-4-hydroxy-4-(hydroxymethyl)-1-((6-methylpyridazin-3-yl)sulfonyl)pyrrolidin-3-yl)oxy)-5-isobutoxybenzonitrile] it was 10 to 100 nM; in that of `CCC[C@H](O)[C@]1(O)CN(S(=O)(=O)c2ccc(Cl)cn2)C[C@@H]1Oc1ccc(C#N)c(F)c1` [Example 189, 4-(((3S,4R)-1-((5-chloropyridin-2-yl)sulfonyl)-4-hydroxy-4-((S)-1-hydroxybutyl)pyrrolidin-3-yl)oxy)-2-fluorobenzonitrile], 10 to 100 nM.
Regarding `C[C@H](O)[C@]1(O)CN(S(=O)(=O)c2ccc(C(F)(F)F)cc2C#N)C[C@@H]1Oc1ccc(C#N)c(F)c1` [Example 190, 4-(((3S,4R)-1-((2-cyano-4-(trifluoromethyl)phenyl)sulfonyl)-4-hydroxy-4-(1-hydroxyethyl)pyrrolidin-3-yl)oxy)-2-fluorobenzonitrile], the IC50 was 0.1 to 10 nM.
With `CC(C)C[C@H](O)[C@]1(O)CN(S(=O)(=O)c2ccc(Cl)cn2)C[C@@H]1Oc1ccc(C#N)c(F)c1` [Example 192, 4-(((3S,4R)-1-((5-chloropyridin-2-yl)sulfonyl)-4-hydroxy-4-((S)-1-hydroxy-3-methylbutyl)pyrrolidin-3-yl)oxy)-2-fluorobenzonitrile], the IC50 was in the range of 10 to 100 nM.
With `C[C@@H](O)[C@]1(O)CN(S(=O)(=O)c2ccc(C(F)(F)F)cc2C#N)C[C@@H]1Oc1ccc(C#N)c(F)c1` [Example 193, 4-(((3S,4R)-1-((2-cyano-4-(trifluoromethyl)phenyl)sulfonyl)-4-hydroxy-4-((R)-1-hydroxyethyl)pyrrolidin-3-yl)oxy)-2-fluorobenzonitrile], the IC50 fell in the range of 0.1 to 10 nM.
On to `C[C@H](O)[C@@]1(O)CN(S(=O)(=O)c2ccc(C(F)(F)F)cc2C#N)C[C@@H]1Oc1ccc(C#N)c(F)c1` [Example 194, 4-(((3S,4S)-1-((2-cyano-4-(trifluoromethyl)phenyl)sulfonyl)-4-hydroxy-4-((S)-1-hydroxyethyl)pyrrolidin-3-yl)oxy)-2-fluorobenzonitrile], for which the IC50 lay within 10 to 100 nM.
Turning to `CC[C@@H](O)[C@]1(O)CN(S(=O)(=O)c2ccc(Cl)cn2)C[C@@H]1Oc1ccc(C#N)c(F)c1` [Example 196, 4-(((3S,4R)-1-((5-chloropyridin-2-yl)sulfonyl)-4-hydroxy-4-((R)-1-hydroxypropyl)pyrrolidin-3-yl)oxy)-2-fluorobenzonitrile], the IC50 lay in the range of 0.1 to 10 nM.
Turning to `CC(C)C[C@@H](O)[C@]1(O)CN(S(=O)(=O)c2ccc(Cl)cn2)C[C@@H]1Oc1ccc(C#N)c(F)c1` [Example 197, 4-(((3S,4R)-1-((5-chloropyridin-2-yl)sulfonyl)-4-hydroxy-4-((R)-1-hydroxy-3-methylbutyl)pyrrolidin-3-yl)oxy)-2-fluorobenzonitrile], the IC50 lay in the range of 0.1 to 10 nM.
With `CCC[C@@H](O)[C@]1(O)CN(S(=O)(=O)c2ccc(Cl)cn2)C[C@@H]1Oc1ccc(C#N)c(F)c1` [Example 198, 4-(((3S,4R)-1-((5-chloropyridin-2-yl)sulfonyl)-4-hydroxy-4-((R)-1-hydroxybutyl)pyrrolidin-3-yl)oxy)-2-fluorobenzonitrile], the IC50 fell in the range of 0.1 to 10 nM.
The same measure, in the same setting: the result for `COc1ccc(S(=O)(=O)N2C[C@H](Oc3ccc(C#N)c(F)c3)[C@](O)([C@H](C)O)C2)c(C#N)c1` [Example 199, 4-(((3S,4R)-1-((2-cyano-4-methoxyphenyl)sulfonyl)-4-hydroxy-4-((S)-1-hydroxyethyl)pyrrolidin-3-yl)oxy)-2-fluorobenzonitrile] reads 10 to 100 nM.
As for `C[C@H](O)[C@]1(O)CN(S(=O)(=O)c2ccccc2C#N)C[C@@H]1Oc1ccc(C#N)c(F)c1` [Example 200, 4-(((3S,4R)-1-((2-cyanophenyl)sulfonyl)-4-hydroxy-4-((S)-1-hydroxyethyl)pyrrolidin-3-yl)oxy)-2-fluorobenzonitrile], the IC50 fell in the range of 10 to 100 nM.
In the case of `C[C@H](O)[C@]1(O)CN(S(=O)(=O)c2ccc(F)cc2C#N)C[C@@H]1Oc1ccc(C#N)c(F)c1` [Example 201, 4-(((3S,4R)-1-((2-cyano-4-fluorophenyl)sulfonyl)-4-hydroxy-4-((S)-1-hydroxyethyl)pyrrolidin-3-yl)oxy)-2-fluorobenzonitrile], the half-maximal inhibitory concentration (IC50) was 0.1 to 10 nM.
Consider `C[C@H](O)[C@]1(O)CN(S(=O)(=O)c2ccc(Cl)cc2C#N)C[C@@H]1Oc1ccc(C#N)c(F)c1` [Example 202, 4-(((3S,4R)-1-((4-chloro-2-cyanophenyl)sulfonyl)-4-hydroxy-4-((S)-1-hydroxyethyl)pyrrolidin-3-yl)oxy)-2-fluorobenzonitrile], for which the IC50 lay in the range of 0.1 to 10 nM.
As for `C[C@H](O)[C@]1(O)CN(S(=O)(=O)c2cccnc2C#N)C[C@@H]1Oc1ccc(C#N)c(F)c1` [Example 203, 3-(((3R,4S)-4-(4-cyano-3-fluorophenoxy)-3-hydroxy-3-((S)-1-hydroxyethyl)pyrrolidin-1-yl)sulfonyl) picolinonitrile], the IC50 fell in the range of 10 to 100 nM.
Same read-out and setting: in the case of `C[C@H](O)[C@]1(O)CN(S(=O)(=O)c2ccc(Cl)cc2Cl)C[C@@H]1Oc1ccc(C#N)c(F)c1` [Example 204, 4-(((3S,4R)-1-((2,4-dichlorophenyl)sulfonyl)-4-hydroxy-4-((S)-1-hydroxyethyl)pyrrolidin-3-yl)oxy)-2-fluorobenzonitrile] it was 0.1 to 10 nM.
Still for that read-out and setting: the result for `C[C@H](O)[C@]1(O)CN(S(=O)(=O)c2ccc(C#N)cc2Cl)C[C@@H]1Oc1ccc(C#N)c(F)c1` [Example 205, 4-(((3S,4R)-1-((2-chloro-4-cyanophenyl)sulfonyl)-4-hydroxy-4-((S)-1-hydroxyethyl)pyrrolidin-3-yl)oxy)-2-fluorobenzonitrile] reads 0.1 to 10 nM.
